Assay results reported in ChEMBL document CHEMBL2429823, “Synthesis and biological evaluation of novel 3,4-diaryl lactam derivatives as triple reuptake inhibitors” (Bioorg Med Chem Lett, 2013).

Legend:
[1] = target: T1, Sodium-dependent dopamine transporter (Homo sapiens, UniProt Q01959); test: Displacement of [3H]Win35428 from human recombinant DAT over-expressed in CHOK1 cells at 10 uM; format: cell-based; details: CHO-K1
[2] = target: T2, Sodium-dependent serotonin transporter (Homo sapiens, UniProt P31645); test: Displacement of [3H]imipramin from human recombinant SERT over-expressed in HEK293 cells at 10 uM; format: cell-based
Target sequence in this assay (P31645 whole entry, looked up): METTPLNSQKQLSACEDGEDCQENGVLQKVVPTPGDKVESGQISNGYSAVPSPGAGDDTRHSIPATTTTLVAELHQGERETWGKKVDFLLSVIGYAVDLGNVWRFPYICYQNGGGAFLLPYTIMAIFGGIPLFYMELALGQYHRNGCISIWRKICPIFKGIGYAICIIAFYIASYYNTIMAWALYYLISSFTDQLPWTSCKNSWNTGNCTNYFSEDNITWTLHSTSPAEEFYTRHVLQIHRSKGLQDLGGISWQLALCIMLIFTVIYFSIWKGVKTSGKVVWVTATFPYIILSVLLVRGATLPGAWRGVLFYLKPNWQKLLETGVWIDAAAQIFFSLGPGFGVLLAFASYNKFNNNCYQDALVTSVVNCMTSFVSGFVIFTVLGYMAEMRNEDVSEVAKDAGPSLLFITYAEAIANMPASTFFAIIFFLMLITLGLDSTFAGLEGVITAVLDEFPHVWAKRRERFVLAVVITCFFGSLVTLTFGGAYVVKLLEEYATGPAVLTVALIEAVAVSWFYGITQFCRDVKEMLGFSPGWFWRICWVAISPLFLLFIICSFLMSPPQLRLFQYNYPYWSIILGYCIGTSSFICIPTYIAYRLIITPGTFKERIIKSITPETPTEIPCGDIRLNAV

[3] = target: T3, Sodium-dependent noradrenaline transporter (Homo sapiens, UniProt P23975); test: Displacement of [3H]Nisoxetine from human recombinant NET over-expressed in dog MDCK cells at 10 uM; format: cell-based
T3 sequence (P23975 whole entry): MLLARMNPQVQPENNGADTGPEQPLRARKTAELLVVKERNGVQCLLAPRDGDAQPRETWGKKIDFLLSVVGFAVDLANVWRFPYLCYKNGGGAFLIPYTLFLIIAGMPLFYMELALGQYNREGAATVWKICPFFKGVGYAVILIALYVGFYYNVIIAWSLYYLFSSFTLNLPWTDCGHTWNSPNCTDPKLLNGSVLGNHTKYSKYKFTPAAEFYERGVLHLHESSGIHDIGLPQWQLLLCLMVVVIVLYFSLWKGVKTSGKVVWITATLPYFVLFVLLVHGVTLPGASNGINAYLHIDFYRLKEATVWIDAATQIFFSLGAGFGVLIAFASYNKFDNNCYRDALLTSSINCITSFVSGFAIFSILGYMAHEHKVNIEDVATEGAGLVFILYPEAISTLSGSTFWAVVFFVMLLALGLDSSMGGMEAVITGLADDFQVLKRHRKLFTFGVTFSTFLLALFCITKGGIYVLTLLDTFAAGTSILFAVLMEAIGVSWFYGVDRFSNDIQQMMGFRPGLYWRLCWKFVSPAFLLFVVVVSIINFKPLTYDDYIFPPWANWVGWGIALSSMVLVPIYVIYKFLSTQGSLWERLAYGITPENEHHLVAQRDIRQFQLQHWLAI

[4] = target: T3, Sodium-dependent noradrenaline transporter; test: biochemical
[5] = target: T1, Sodium-dependent dopamine transporter; test: biochemical
[6] = target: T2, Sodium-dependent serotonin transporter; details: HEK293, at 10 µM
Target sequence in this assay (P31645 whole entry, looked up): as the sequence (P31645 whole entry, looked up) above
Description: Inhibition of human SERT-mediated serotonin uptake expressed in HEK293 cells at 10 uM after 15 mins by fluorescence plate reader analysis

[7] = target: T2, Sodium-dependent serotonin transporter; test: biochemical; format: cell-based, HEK293
Target sequence in this assay (P31645 whole entry): as the sequence (P31645 whole entry, looked up) above

T1 sequence (Q01959 whole entry): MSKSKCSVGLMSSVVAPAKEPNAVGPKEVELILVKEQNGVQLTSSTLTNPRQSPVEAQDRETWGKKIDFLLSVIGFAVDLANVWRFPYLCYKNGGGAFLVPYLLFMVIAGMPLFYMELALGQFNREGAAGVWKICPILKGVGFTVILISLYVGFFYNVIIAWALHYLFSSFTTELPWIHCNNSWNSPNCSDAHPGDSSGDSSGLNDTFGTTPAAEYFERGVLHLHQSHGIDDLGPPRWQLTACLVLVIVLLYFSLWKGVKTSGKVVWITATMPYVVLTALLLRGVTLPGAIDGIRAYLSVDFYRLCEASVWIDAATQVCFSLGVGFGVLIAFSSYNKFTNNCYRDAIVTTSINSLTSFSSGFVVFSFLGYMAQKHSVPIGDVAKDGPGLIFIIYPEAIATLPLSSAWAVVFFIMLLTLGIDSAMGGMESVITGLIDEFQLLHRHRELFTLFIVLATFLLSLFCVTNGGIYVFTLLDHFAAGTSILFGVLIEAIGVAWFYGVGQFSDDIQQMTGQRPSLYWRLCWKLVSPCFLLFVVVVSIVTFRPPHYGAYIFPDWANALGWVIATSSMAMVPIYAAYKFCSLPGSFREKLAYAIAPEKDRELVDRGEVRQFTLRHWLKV

| SMILES | inhibition [1] [%] | inhibition [2] [%] | inhibition [3] [%] | IC50 [4] [nM] | IC50 [5] [nM] | inhibition [6] [%] | IC50 [7] [nM] |
| --- | --- | --- | --- | --- | --- | --- | --- |
| Clc1cccc2c1CC[C@H]1NC[C@H](c3ccccc3)[C@@H]21 | 5 | 9 | 10 |  |  |  |  |
| O=C1NCC(c2ccc(Cl)c(Cl)c2)C1c1cccc(Cl)c1 (configuration not stated) | 87 | 57 | 93 | 384 | 41.7 | 20.4 |  |
| Clc1ccc2c(c1Cl)CC[C@H]1NC[C@H](c3ccccc3)[C@@H]21 | 5 | 9 | 10 |  |  |  |  |
| O=C1NCC(c2ccc(Cl)cc2)C1c1ccccc1Cl (configuration not stated) | 97 | 49 | 74 | 3570 | 81.5 | 23.4 |  |
| O=C1NCC(c2cccc(Cl)c2)C1c1ccccc1 (configuration not stated) | 98 | 55 | 26 |  | 22.7 | 24.3 |  |
| O=C1NCC(c2ccc(Cl)c(Cl)c2)C1c1ccc(Cl)c(Cl)c1 (configuration not stated) | 85 | 42 | 90 | 990 | 285 | 8.8 |  |
| CN(C)CCCN1c2ccccc2CCc2ccc(Cl)cc21 [CLOMIPRAMINE] |  |  |  |  | 2780 |  |  |
| O=C1NCC(c2cccc(Cl)c2)C1c1cccc(Cl)c1 (configuration not stated) | 98 | 26 | 59 |  | 38.7 | 14.3 |  |
| O=C1NCC(c2cccc(Cl)c2)C1c1ccc(Cl)cc1 (configuration not stated) | 95 | 49 | 87 | 1660 | 33.1 | 38.4 |  |
| O=C1NCC(c2ccccc2Cl)C1c1ccccc1Cl (configuration not stated) | 45 | 20 | 33 |  |  | 6.9 |  |
| Clc1ccc2c(c1)CC[C@H]1NC[C@H](c3ccccc3)[C@@H]21 | 5 | 9 | 10 |  |  |  |  |
| O=C1NCC(c2ccc(Cl)cc2)C1c1ccc(Cl)cc1 (configuration not stated) | 99 | 84 | 75 | 5180 | 179 | 58.1 | 99.2 |
| O=C1NCC(c2ccc(Cl)cc2)C1c1ccc2ccccc2c1 (configuration not stated) | 97 | 79 | 91 | 1190 | 160 | 26.3 | 6450 |
| O=C1NCC(c2ccccc2Cl)C1c1ccccc1 (configuration not stated) | 70 | 23 | 5 |  | 2140 | 19.3 |  |
| O=C1NCC(c2ccc(Cl)cc2)C1c1cccc(Cl)c1 (configuration not stated) | 99 | 22 | 72 | 3820 | 36.3 | 12.2 |  |
| O=C1NCC(c2ccc(Cl)cc2)C1c1ccccc1 (configuration not stated) | 99 | 20 | 50 |  | 32.7 | 30.8 |  |
| O=C1NCC(c2ccccc2Cl)C1c1ccc(Cl)cc1 (configuration not stated) | 51 | 26 | 60 | 7620 |  | 8.5 |  |
| O=C1NCC(c2ccc(Cl)c(Cl)c2)C1c1ccccc1 (configuration not stated) | 83 | 49 | 87 | 866 | 36.6 | 29.4 |  |
| O=C1NCC(c2ccc(Cl)cc2)C1c1ccc(Cl)c(Cl)c1 (configuration not stated) | 96 | 57 | 92 | 1900 | 281 | 22.7 |  |
| O=C1NCC(c2ccc(Cl)c(Cl)c2)C1c1ccc(Cl)cc1 (configuration not stated) | 76 | 90 | 83 | 2030 | 99.6 | 50.4 | 85.6 |
| CNCCC(Oc1ccccc1OC)c1ccccc1 (configuration not stated) |  |  |  |  |  | 54 |  |
| O=C1NCC(c2ccccc2Cl)C1c1ccc(Cl)c(Cl)c1 (configuration not stated) | 87 | 26 | 90 | 2520 | 1730 | 6.2 |  |
| O=C1NCC(c2cccc(Cl)c2)C1c1ccc(Cl)c(Cl)c1 (configuration not stated) | 99 | 71 | 78 | 2740 | 172 | 40.9 | 3760 |
| Clc1ccc2c(c1)[C@@H]1[C@@H](c3ccccc3)CN[C@@H]1CC2 | 5 | 9 | 10 |  |  |  |  |
| O=C1NCC(c2ccccc2Cl)C1c1ccc2ccccc2c1 (configuration not stated) | 23 | 56 | 89 | 1380 |  | 4.5 |  |
| O=C1NCC(c2ccc(Cl)c(Cl)c2)C1c1ccc2ccccc2c1 (configuration not stated) | 86 | 69 | 94 | 483 | 121 | 4.4 | 965 |
| O=C1NCC(c2cccc(Cl)c2)C1c1ccccc1Cl (configuration not stated) | 96 | 39 | 41 |  | 17.3 | 20.2 |  |
| O=C1NCC(c2ccc(Cl)c(Cl)c2)C1c1ccccc1Cl (configuration not stated) | 100 | 52 | 99 | 510 | 8.14 | 21.9 |  |
